Experimental data taken from patent publication US20090306133A1, “New Acetyl Coenzyme A Carboxylase (ACC) Inhibitors And Uses In Treatments Of Obesity And Diabetes Mellitus - 087” (ASTRAZENECA AB, priority 2007, published 2009).

Legend:
[1] = molecular target: Human recombinant Acetyl-CoA Carboxylase 2 (ACC2) (Homo sapiens, UniProt O00763); assay: Assay Y: ACC2 inhibition, inorganic phosphate (Malachite Green); format: biochemical; conditions: Assay Y: room temperature, 3 hr, 15 min preincubation
Human recombinant Acetyl-CoA Carboxylase 2 (ACC2), sequence (O00763 whole entry): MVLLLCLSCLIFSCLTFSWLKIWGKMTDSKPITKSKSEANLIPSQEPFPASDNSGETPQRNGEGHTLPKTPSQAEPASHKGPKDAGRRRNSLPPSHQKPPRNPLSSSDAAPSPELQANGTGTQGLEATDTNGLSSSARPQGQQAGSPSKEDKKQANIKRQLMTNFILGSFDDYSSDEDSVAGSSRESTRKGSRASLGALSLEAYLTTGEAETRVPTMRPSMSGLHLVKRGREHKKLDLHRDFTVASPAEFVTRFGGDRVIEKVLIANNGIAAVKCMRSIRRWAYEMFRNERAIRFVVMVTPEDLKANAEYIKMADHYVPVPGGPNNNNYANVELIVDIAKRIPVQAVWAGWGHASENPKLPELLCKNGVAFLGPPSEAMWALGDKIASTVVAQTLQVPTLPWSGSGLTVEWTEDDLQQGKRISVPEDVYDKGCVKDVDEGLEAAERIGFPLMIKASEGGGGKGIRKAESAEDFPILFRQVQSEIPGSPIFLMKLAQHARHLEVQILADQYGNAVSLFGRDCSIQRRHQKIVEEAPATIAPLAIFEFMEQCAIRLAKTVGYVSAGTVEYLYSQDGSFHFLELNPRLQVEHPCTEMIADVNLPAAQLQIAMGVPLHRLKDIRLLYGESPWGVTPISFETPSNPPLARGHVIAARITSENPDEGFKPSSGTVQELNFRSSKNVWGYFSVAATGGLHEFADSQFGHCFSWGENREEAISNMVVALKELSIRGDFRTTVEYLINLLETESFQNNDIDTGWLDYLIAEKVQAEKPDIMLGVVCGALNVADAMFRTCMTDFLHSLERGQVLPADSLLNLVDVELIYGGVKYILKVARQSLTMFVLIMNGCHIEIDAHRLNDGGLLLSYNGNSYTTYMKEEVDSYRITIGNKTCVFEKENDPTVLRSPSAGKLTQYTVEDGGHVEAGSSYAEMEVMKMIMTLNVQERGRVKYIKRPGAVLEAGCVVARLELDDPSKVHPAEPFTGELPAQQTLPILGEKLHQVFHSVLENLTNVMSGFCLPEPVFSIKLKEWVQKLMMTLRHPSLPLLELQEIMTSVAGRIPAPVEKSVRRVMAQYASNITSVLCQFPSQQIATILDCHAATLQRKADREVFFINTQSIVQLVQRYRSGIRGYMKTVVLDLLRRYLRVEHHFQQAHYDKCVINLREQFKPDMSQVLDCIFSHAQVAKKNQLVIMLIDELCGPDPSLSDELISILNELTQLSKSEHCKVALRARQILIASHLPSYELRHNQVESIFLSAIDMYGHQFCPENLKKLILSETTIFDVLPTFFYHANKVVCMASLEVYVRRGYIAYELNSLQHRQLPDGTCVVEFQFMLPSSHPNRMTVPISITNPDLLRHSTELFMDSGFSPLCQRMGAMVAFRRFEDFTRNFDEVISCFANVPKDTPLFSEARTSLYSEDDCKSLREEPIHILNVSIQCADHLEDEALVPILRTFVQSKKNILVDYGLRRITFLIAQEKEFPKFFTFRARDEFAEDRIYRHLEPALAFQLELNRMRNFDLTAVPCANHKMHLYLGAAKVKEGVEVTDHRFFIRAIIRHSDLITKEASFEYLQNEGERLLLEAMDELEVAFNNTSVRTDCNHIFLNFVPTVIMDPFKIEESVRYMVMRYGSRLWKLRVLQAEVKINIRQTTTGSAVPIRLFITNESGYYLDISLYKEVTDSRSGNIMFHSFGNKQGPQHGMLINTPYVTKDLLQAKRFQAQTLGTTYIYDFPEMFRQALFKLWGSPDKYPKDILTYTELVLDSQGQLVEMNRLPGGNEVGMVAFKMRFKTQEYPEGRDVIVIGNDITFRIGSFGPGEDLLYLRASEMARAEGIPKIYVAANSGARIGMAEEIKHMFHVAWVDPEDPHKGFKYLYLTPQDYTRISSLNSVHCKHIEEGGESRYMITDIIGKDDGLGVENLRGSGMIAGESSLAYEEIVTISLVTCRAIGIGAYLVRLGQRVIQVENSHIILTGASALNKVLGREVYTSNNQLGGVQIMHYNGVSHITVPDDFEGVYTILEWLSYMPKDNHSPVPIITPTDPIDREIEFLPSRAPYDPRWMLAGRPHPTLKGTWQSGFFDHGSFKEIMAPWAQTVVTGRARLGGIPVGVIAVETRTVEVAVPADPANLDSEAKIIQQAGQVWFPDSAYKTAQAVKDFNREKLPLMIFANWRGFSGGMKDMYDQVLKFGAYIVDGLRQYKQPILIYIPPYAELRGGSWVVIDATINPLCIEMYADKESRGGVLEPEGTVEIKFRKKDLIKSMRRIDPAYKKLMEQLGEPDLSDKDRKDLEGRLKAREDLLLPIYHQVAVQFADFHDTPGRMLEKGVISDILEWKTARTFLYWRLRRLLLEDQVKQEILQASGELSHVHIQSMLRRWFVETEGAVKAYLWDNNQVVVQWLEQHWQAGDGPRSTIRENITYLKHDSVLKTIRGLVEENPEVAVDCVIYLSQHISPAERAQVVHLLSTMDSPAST
Procedure, shortened: (§1)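 Enzyme preincubated with compound 15 min before substrate addition; reaction run 3 h, then phosphate detected with Malachite Green at 670 nm after 10 min at room temperature. Triplicate 10-point titrations; IC50 by non-linear four-parameter curve fitting.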

[2] = molecular target: Human recombinant Acetyl-CoA Carboxylase 1 (ACC1) (Homo sapiens, UniProt Q13085); assay: Assay Y: ACC1 inhibition, inorganic phosphate (Malachite Green); format: biochemical; conditions: Assay Y: room temperature, 3 hr, 15 min preincubation
Procedure, shortened: as §1

| IC50 [1] [nM] | IC50 [2] [nM] | Compound |
| --- | --- | --- |
| 650 | 1640 | CN1CCN(c2ccc(-c3cc(C(=O)NC[C@H]4CC[C@H](CNC(=O)OCCF)CC4)c4ccccc4n3)cn2)CC1 [Example 118, 2-Fluoroethyl[(trans-4-{[({2-[6-(4-methylpiperazin-1-yl)pyridin-3-yl]quinolin-4-yl}carbonyl)amino]methyl}cyclohexyl)methyl]carbamate] |
| 720 | 2260 | CCOC(=O)NC[C@H]1CC[C@H](CNC(=O)c2cc(-c3ccc(N4CCN(C)CC4)nc3)nc3ccccc23)CC1 [Example 119, Ethyl[(trans-4-{[({2-[6-(4-methylpiperazin-1-yl)pyridin-3-yl]quinolin-4-yl}carbonyl)amino]methyl}cyclohexyl)methyl]carbamate] |
| 1320 | 4250 | COCCOC(=O)NC[C@H]1CC[C@H](CNC(=O)c2cc(-c3ccc(N4CCN(C)CC4)nc3)nc3ccccc23)CC1 [Example 120, 2-Methoxyethyl[(trans-4-{[({2-[6-(4-methylpiperazin-1-yl)pyridin-3-yl]quinolin-4-yl}carbonyl)amino]methyl}cyclohexyl)methyl]carbamate] |
| 660 | 2490 | C[C@@H](CO)OC(=O)NC[C@H]1CC[C@H](CNC(=O)c2cc(-c3ccc(N4CCN(C)CC4)nc3)nc3ccccc23)CC1 [Example 133, (1S)-2-Hydroxy-1-methylethyl [(trans-4-{[({2-[6-(4-methylpiperazin-1-yl)pyridin-3-yl]quinolin-4-yl}carbonyl)amino]methyl}cyclohexyl)methyl]carbamate] |
| 100 | 530 | CNS(=O)(=O)c1ccc(-c2cc(C(=O)NC[C@H]3CC[C@H](CNC(=O)OC(C)(C)C)CC3)c3ccccc3n2)cc1 [Example 134, tert-Butyl {[trans-4-({[(2-{4-[(methylamino)sulfonyl]-phenyl}quinolin-4-yl)carbonyl]amino}methyl)cyclohexyl]methyl}-carbamate] |
| 80 | 380 | CC(C)(C)OC(=O)NC[C@H]1CC[C@H](CNC(=O)c2cc(-c3ccc(S(N)(=O)=O)cc3)nc3ccccc23)CC1 [Example 135, tert-Butyl [(trans-4-{[({2-[4-(aminosulfonyl)phenyl]-quinolin-4-yl}carbonyl)amino]-methyl}-cyclohexyl)methyl]-carbamate] |
| 620 | 3070 | CNS(=O)(=O)c1ccc(-c2cc(C(=O)NC[C@H]3CC[C@H](CNC(=O)OC4CCOCC4)CC3)c3ccccc3n2)cc1 [Example 136, Tetrahydro-2H-pyran-4-yl{[trans-4-({[(2-{4-[(methylamino)sulfonyl]phenyl}quinolin-4-yl)carbonyl]amino}methyl)cyclohexyl]methyl}-carbamate] |
| 680 | 3410 | CNS(=O)(=O)c1ccc(-c2cc(C(=O)NC[C@H]3CC[C@H](CNC(=O)O[C@H]4CCOC4)CC3)c3ccccc3n2)cc1 [Example 137, (3S)-Tetrahydrofuran-3-yl{[trans-4-({[(2-{4-[(methylamino)sulfonyl]phenyl}quinolin-4-yl)carbonyl]amino}methyl)cyclohexyl]methyl}-carbamate] |
| 710 | 3760 | NS(=O)(=O)c1ccc(-c2cc(C(=O)NC[C@H]3CC[C@H](CNC(=O)OC4CCOCC4)CC3)c3ccccc3n2)cc1 [Example 138, Tetrahydro-2H-pyran-4-yl[(trans-4-{[({2-[4-(aminosulfonyl)phenyl]-quinolin-4-yl}carbonyl)amino]-methyl}cyclohexyl)-methyl]carbamate] |
| 530 | 3340 | NS(=O)(=O)c1ccc(-c2cc(C(=O)NC[C@H]3CC[C@H](CNC(=O)O[C@H]4CCOC4)CC3)c3ccccc3n2)cc1 [Example 139, (3S)-Tetrahydrofuran-3-yl[(trans-4-{[({2-[4-(aminosulfonyl)phenyl]-quinolin-4-yl}carbonyl)amino]-methyl}cyclohexyl)-methyl]carbamate] |
